Results as given in patent US11008325B2, “Inhibitors of cancer invasion, attachment, and/or metastasis” (VIRGINIA COMMONWEALTH UNIVERSITY, priority 2016, dated 2021).
Read-outs that look alike come from different tables or passages of the source.

Legend:
[1] = target: T1, MDA-9 PDZ12 tandem domain (PDZ1) (Homo sapiens, UniProt O00560); experiment: NMR [15N,1H] HSQC chemical shift change and titration binding; conditions: for Binding affinity ranking: chemical shift change (DPPM) of backbone amide of residue 147, 50 μM PDZ12, compound at 1:1 molar ratio
T1 construct: the MDA-9/Syntenin construct used for the screen contains both PDZ domains; made in house
T1 sequence (O00560 110-274): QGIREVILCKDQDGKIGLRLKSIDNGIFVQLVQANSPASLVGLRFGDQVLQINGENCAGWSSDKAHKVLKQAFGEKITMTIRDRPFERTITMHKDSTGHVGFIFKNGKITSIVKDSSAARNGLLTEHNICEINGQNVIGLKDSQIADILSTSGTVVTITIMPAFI
Description: FIGS. 4A-4E. FIG. 4A. […] FIG. 4B. Superposition of 2D [^15N, ^1H]-HSQC spectra of 50 μM MDA-9 PDZ12 tandem domain in the absence and presence of 350 μM 113B7. FIG. 4C. Binding curve and representative spectra for the titration of 113B7 against MDA-9 PDZ12 tandem domain. Top: Zoom of box region in FIG. 4B after titrating 113B7 into Mda9 PDZ, tandem domain. […] Bottom: Titration curve of 113B7 for residue A147. […] FIG. 4D. […] FIG. 4E. Docked structure of 113B7 in complex with MDA-9 PDZ tandem domain (PDB: 1W9E). The pose was obtained with GOLD. Two PDZ domains of MDA-9 are labeled.
NMR based screening of an house assembled fragment library of about 5,000 compounds using [^15N,^1H] […] The proposed docked structure of PDZ1i in the PDZ1 domain and interdomain of MDA-9/Syntenin is shown in FIGS. 4A-4E and FIG. 5, while the chemical structure of PDZ1i is also shown in FIGS. 4A-4E and FIG. 5.
In all binding assays, the MDA-9/Syntenin construct used for the screen contains both PDZ domains. Constructs uniformly labeled with ^15N and ^13C or ^13C-Met selectively labeled are used for binding, mapping and structural studies. These same proteins are used for ITC binding studies.

[2] = system: Dishevelled PDZ/Fz7 Wnt receptor; conditions: Xenopus embryos; cited from earlier work
migration (SAR, Table 4) = format: cell-based
human cancer cell lines = conditions: cited from earlier work
mouse xenograft model = conditions: in vivo; cited from earlier work
[3] = NMR titration following backbone amide of residue 147, read-out: Kd values

Row | Compound | Binding affinity ranking [1] | Kd [1, 3] [µM] | other results
1 | Cc1cc(=O)n2nc(NCc3ccccc3)nc2[nH]1 [cmpd1] | 2 (2 for DPPM 0.02-0.04) |  | 
2 | O=c1[nH]c2sc3c(c2c2ncnn12)CCCC3 [cmpd6] | 1 (1 for DPPM 0.00-0.02) |  | 
3 | GSKTLQSWRRYH [Fz7 peptide] |  |  | Wnt3A-induced canonical Wnt signaling [2]: peptide attenuates Wnt3A-induced
4 | SGKLKLMTTV [Dapper peptide] |  |  | Wnt3A-induced canonical Wnt signaling [2]: peptide attenuates Wnt3A-induced
5 | Cc1cc(=O)n2nc(C(=O)Nc3cccc(Cl)c3)nc2[nH]1 [cmpd10] | 4 (4 for DPPM 0.06-0.08) | 151 | 
6 | O=c1c2c([nH]c3nc(COc4ccccc4)nn13)CCC2 [cmpd11] | 5 (5 for DPPM 0.08-0.1) | 171 | 
7 | CCCCC(O)C1Nc2cc(C)c(C(=O)O)cc2C1CCc1ccccc1 (stereo not shown) |  |  | apoptosis (human cancer cell lines): Induction of apoptosis in human cancer cell lines; tumor growth (mouse xenograft model): tumor growth inhibition in a mouse xenograft model
8 | Cc1c(C)c(NC(=O)c2nc3[nH]c4c(c(=O)n3n2)CCC4)c(C)c(C)c1N [113B8] | 5 (5 for DPPM 0.08-0.1) | 151 | 
9 | O=c1c2c([nH]c3nc(CCc4ccccc4)nn13)CCC2 [cmpd13] | 3 (3 for DPPM 0.04-0.06) |  | 
10 | Cc1cc(=O)n2nc(CCc3ccccc3)nc2[nH]1 [cmpd2] | 3 (3 for DPPM 0.04-0.06) |  | 
11 | O=C(Nc1cc(Cl)c(O)c(Cl)c1)c1nc2[nH]c3c(c(=O)n2n1)CCC3 [112F11] | 5 (5 for DPPM 0.08-0.1) |  | 
12 | Cc1cc(NC(=O)c2nc3[nH]c4c(c(=O)n3n2)CCC4)c(C)cc1NC(=O)Cc1ccc(-c2ccccc2)cc1 [113B9] | N.B. |  | 
13 | Cc1cc(=O)n2nc(C(=O)Nc3cc(Cl)c(N)cc3Cl)nc2[nH]1 [112G4] | 6 (6 for DPPM above 0.1) | 34.3 | Kd ([1]; fragment hits, FIG. 55B, read-out: Kd): ~300 µM
14 | COc1ccc(Br)c(-c2nnc(CCC(=O)Nc3cc(C)c(NC(=O)c4nc5[nH]c6c(c(=O)n5n4)CCC6)cc3C)o2)c1 [113B12] | 1 (1 for DPPM 0.00-0.02) |  | 
15 | CC(NC(=O)C(OC(=O)C(C)NC(=O)OC(C)(C)C)C(C)C)C(=O)OC(C(=O)O)C(C)C (stereo not shown) [NSC-668036] |  |  | Wnt3A-induced canonical Wnt signaling [2]: In Xenopus embryos, NSC-668036 inhibits the canonical Wnt signaling induced by Wnt3A (34).
16 | COc1cccc(NC(=O)c2nc3[nH]c(C)cc(=O)n3n2)c1 [cmpd8] | 3 (3 for DPPM 0.04-0.06) |  | 

The next lines start with results.

Row | Binding affinity ranking [1] | Kd [1, 3] [µM] | Compound | other results
17 | 2 (2 for DPPM 0.02-0.04) | 166 | O=C(Nc1ccc(O)c(F)c1)c1nc2[nH]c3c(c(=O)n2n1)CCC3 [112F12] | 
18 | 3 (3 for DPPM 0.04-0.06) |  | Cc1cc(NC(=O)c2nc3[nH]c4c(c(=O)n3n2)CCC4)c(C)cc1NC(=O)CCc1nnc(-c2ccsc2)o1 [113B11] | 
19 | 2 (2 for DPPM 0.02-0.04) | 38.3 | Cc1cc(NC(=O)c2nc3[nH]c4c(c(=O)n3n2)CCC4)c(C)cc1NC(=O)CCc1nnc(-c2cccc(C(F)(F)F)c2)o1 [112H9] | % migr. (migration (SAR, Table 4)): 24%; Kd ([1]; estimated by NMR titration in 2D HSQC experiments (Table 4), read-out: Kd): 38 µM
20 | 4 (4 for DPPM 0.06-0.08) |  | O=C(Nc1ccc(O)c(Cl)c1)c1nc2[nH]c3c(c(=O)n2n1)CCC3 [112F10] | 
21 | 3 (3 for DPPM 0.04-0.06) |  | Cc1cc(=O)n2nc(C(=O)Nc3ccc4c(c3)OCO4)nc2[nH]1 [cmpd9] | 
22 | 2 (2 for DPPM 0.02-0.04) | 245 | Cc1cc(=O)n2nc(C(=O)Nc3ccc(O)cc3)nc2[nH]1 [112D11] | 
23 | 1 (1 for DPPM 0.00-0.02) |  | CCCc1cc(=O)n2nc(COc3ccccc3)nc2[nH]1 [cmpd14] | 
24 | 1 (1 for DPPM 0.00-0.02) |  | O=c1c2c([nH]c3nc(NCc4cccs4)nn13)CCC2 [cmpd3] | 
25 | 4 (4 for DPPM 0.06-0.08) | 197 | Cc1cc(=O)n2nc(COc3ccccc3)nc2[nH]1 [30A9] | 
26 | 2 (2 for DPPM 0.02-0.04) |  | Cc1cc(=O)n2nc(C(=O)Nc3ccc4c(c3)OCCO4)nc2[nH]1 [cmpd7] | 
27 | 4 (4 for DPPM 0.06-0.08) | 147 | Cc1cc(=O)n2nc(C(=O)Nc3ccc(O)c(F)c3)nc2[nH]1 [112G2] | 
28 | 1 (1 for DPPM 0.00-0.02) |  | Cc1cc(O)n2nc(C(=O)Nc3ccc(O)cc3)nc2n1 [112F1] | 
29 | 6 (6 for DPPM above 0.1) | 57.3 | Cc1cc(=O)n2nc(C(=O)Nc3cc(Cl)c(O)c(Cl)c3)nc2[nH]1 [112G1] | 
30 | 2 (2 for DPPM 0.02-0.04) |  | Cc1[nH]c2nc(C(=O)NCc3ccccc3)nn2c(=O)c1C [cmpd5] | 
31 | 1 (1 for DPPM 0.00-0.02) | 944 | Cc1cc(=O)n2nc(C(=O)Nc3ccc(N)cc3)nc2[nH]1 [112E7] | 
32 | 4 (4 for DPPM 0.06-0.08) |  | Cc1cc(=O)n2nc(SCc3ccccc3)nc2[nH]1 [cmpd4] | 
33 | 1 (1 for DPPM 0.00-0.02) | 1610 | O=C(Nc1ccc(O)cc1)c1nc2[nH]c3c(c(=O)n2n1)CCC3 [112E12] | 
34 | 2 (2 for DPPM 0.02-0.04) | 263 | Nc1ccc(NC(=O)c2nc3[nH]c4c(c(=O)n3n2)CCC4)cc1 [112G11] | 
35 |  | 119 | O=C(Nc1ccc(O)c(Cl)c1)c1nc2[nH]c3c(c(=O)n2n1)CCC3 [112G3] | 
